Laboratory results as given in patent US20220380371A1, “MLL1 INHIBITORS AND ANTI-CANCER AGENTS” (NOVARTIS AG, priority 2019, published 2022).
Where two headings read alike, the source gives them in different places.

Legend:
[1] = biological target: wild type MLL1 four-member complex (MLL1-4C) (Homo sapiens, UniProt Q03164); assay: MLL1 LC-MS Assay; format: biochemical
Description: The compounds of the present disclosure were serially and separately diluted 3-fold in DMSO to obtain a total of eight or twelve concentrations. Then the test compounds at each concentration (120 nL of each) were transferred by Mosquito into white Proxiplate plus 384-well microplate (PerkinElmer). Solutions (6 μL) of 60 nM wild type MLL1 four-member complex (MLL1-4C) and 5 μM SAM in the reaction buffer (20 mM Tris-HCl, pH 8.0, 0.01% Tween 20, 1 mM DTT, 10 mM MgCl2, 0.01% BSA) were added to the wells that were then incubated with the test compound for 20 min. A 6 μL solution of 20 μM of the peptide substrate H3K4me0 (histone H3[1-21]-Biotin) in the reaction buffer was added to initiate each reaction. The final components in the reaction solution include 30 nM MLL1-4C, 2.5 μM SAM, and 10 μM H3K4me0 with varying concentration of the compounds. A positive control consisted of 30 nM MLL1-4C, 2.5 μM SAM, and 10 μM substrate in the absence of the test compound, and a negative control consisted of 2.5 μM SAM, and 10 μM substrate only. Each reaction was incubated at rt for 120 min, then stopped by addition of 3 μL per of quench solution (2.5% TFA with 320 nM d4-SAH). The reaction mixture was centrifuged (Eppendorf centrifuge 5810, Rotor A-4-62) for 2 min at 2000 rpm. The SAH production from the enzymatic assays were monitored by LC-MS/MS on an API 4000 triple quadrupole mass spec with Turbolon Spray (Applied Biosystem) coupled with Prominenece UFLC (Shimazu). The level of SAH production were then normalized based on the values coming from the positive and negative controls to give percent enzyme activities. The data were then fit to a dose response equation using the program Helios (Novartis) to get the IC50 values of the test compounds.

H3K4me3 in MV4-11 cells = assay: MV4-11 H3K4me3 Cellular ELISA Assay; format: cell-based; settings: Homo sapiens, MV4-11, 48 h
Description: MV4-11 H3K4me3 Cellular ELISA Assay
MV4-11 (ATCC® CRL-9591™) was cultured with RPMI1640 medium (Thermo Fisher Scientific, cat #11875) supplemented with 10% FBS (Thermo Fisher Scientific, cat #10099141) and 50 U/ml Penicillin-Streptomycin (Thermo Fisher Scientific, cat #10378016) in humidified incubator at 37° C., 5% CO2.
200 nL compounds dissolved in DMSO were serially diluted at 1:3 ratio for 12 points starting from 10 mM and dispensed into each wells of cell culture plates (PDL-coated ViewPlate-384 Black, FTC, PerkinElmer, #6007710). 3,750 MV4-11 cells in 40 μL culture medium were seeded into each well and treated with desired concentration for 48 hours. After treatment, wash cells with cold phosphate based buffer (PBS, pH 7.4) and aspirate the remaining PBS buffer. Crude histone lysate was extracted by 40 μL 0.5M HCl for 1 hour in 4° C. following neutralization by adding 32 μL neutralization buffer (0.5M Sodium phosphate dibasic, pH ˜12.5, 1.25 mM Dithiothreitol, Promega #V3151, Protease Inhibitor Cocktail, Sigma #8340) for each well. 5 μL and 20 μL of histone lysate was loaded to ELISA plate (384 Well Plates, PE HB, White, 6005620) for detection of total H3 and H3K4me3, respectively. Shake the plates gently in 4° C. for overnight. After histone binding, plates were washed with 80 μL PBS/T (PBS with 0.05% Tween-20) and blocked with 50 μL 3% BSA diluted in PBS/T per well for 1 hour. Incubate wells with primary antibody for 1 hour at room temperature using anti-H3K4me3 (CST #9727) and anti-total H3 (CST #9715) diluted 1:2000 in 3% BSA. Plates were then washed with PBS/T for 3 times and incubated with horseradish peroxidase (HRP) conjugated secondary antibody (CST #7074, 1:5000) for 1 hour at room temperature. The abundance of H3K4me3 and total H3 were measured by ECL substrates chemiluminescence (Pierce, #34080) on a plate reader (PerkinElmer EnVison 2104 Mutilable Reader). Percentage inhibition was calculated against DMSO control after normalization of H3K4me3 signal to H3 signal for individual samples. The data were then fit to a dose response curve using GraphPad Prism for IC50 calculation.

MV4-11 cells = assay: MV4-11 6-Day Cell Growth CTG (CellTiter-Glo) Assay; format: cell-based; settings: Homo sapiens, MV4-11, 144 h, MV4-11 cell growth CellTiter-Glo, 6 days
Description: MV4-11 6-Day Cell Growth CTG (CellTiter-Glo) Assay
Acute myeloid leukemia cell MV4-11 (ATCC® CRL-9591™) was cultured with RPMI 1640 medium (Thermo Fisher Scientific, cat #11875) supplemented with 10% FBS (Thermo Fisher Scientific, cat #10099141) in humidified incubator at 37° C., 5% CO2. To assess the effect of MLL1 inhibition on cell growth, the compound of the present invention was dissolved in DMSO and serially diluted at 1:3 for 12 points starting from 10 mM then 200 nL for the replicate of each dose per well was dispensed to Viewplate-384 Black (Perkin Elmer). Exponentially growing MV4-11 cells were seeded at the density of 300 cells per well in 40 μL to the plate, so the final compound working concentration starts from 50 μM. After 6 days, 40 μL CellTiter-Glo (Promega, cat #G7573) was added into the cell culture well and luminescence was read with Envision (Perkin Elmer) to determine the viable cells. The percentage inhibition was calculated against the samples treated with DMSO only and the data were used for dose response curve fitting in GraphPad Prism to get the IC50 of representative compound of present invention, which reflects the inhibition of MLL1 activity.

| SMILES | IC50 ([1]; read-out: LCMS) | IC50 (H3K4me3 in MV4-11 cells) | IC50 (MV4-11 cells) | IC50 ([1]; read-out: MLL1 LCMS) |
| --- | --- | --- | --- | --- |
| CN(C)Cc1c(C(F)(F)F)ccc(N2CC[C@](N)(C(=O)NC3CC3)C2)c1Cn1cnc2c(N)ncnc21 [Example 47] | < 0.05 µM | < 1.9 µM | < 2 µM |  |
| COCc1c(F)ccc(N2CC[C@](N)(C(=O)NC3CC3)C2)c1Cn1cnc2c(N)ncnc21 [Example 77, (R)-3-amino-1-(2-((6-amino-9H-purin-9-yl)methyl)-4-fluoro-3-(methoxymethyl)phenyl)-N-cyclopropylpyrrolidine-3-carboxamide] | 0.05 to 0.1 µM | < 1.9 µM | < 2 µM |  |
| Nc1ncnc2c1ncn2Cc1c(Br)cc(Cl)cc1N1CC[C@](N)(c2nnn[nH]2)C1 [Example 83, (R)-9-(2-(3-amino-3-(1H-tetrazol-5-yl)pyrrolidin-1-yl)-6-bromo-4-chlorobenzyl)-9H-purin-6-amine] | < 0.05 µM | < 1.9 µM | < 2 µM |  |
| Nc1ncnc2c1ncn2Cc1c(N2CC[C@](N)(C(=O)NCC3CC3(F)F)C2)ccc(F)c1C(F)(F)F (stereo partly drawn) [Example 122] | < 0.05 µM | < 1.9 µM | < 2 µM |  |
| Nc1ncnc2c1ncn2Cc1c(N2CC[C@](N)(c3ccccc3)C2)ccc(F)c1C(F)(F)F [Example 26] | 0.05 to 0.1 µM | 1.9 to 3 µM | 2 to 3 µM |  |
| Nc1ncnc2c1ncn2Cc1c(N2CC[C@](N)(C(=O)NC3CC3)C2)ccc(F)c1CC(F)(F)F [Example 6] | < 0.05 µM | < 1.9 µM | < 2 µM |  |
| [2H]C([2H])([2H])C([2H])([2H])NC(=O)[C@@]1(N)CCN(c2cc(Cl)cc(Br)c2Cn2cnc3c(N)ncnc32)C1 [Example 159] |  | < 1.9 µM | 2 to 3 µM | < 0.05 µM |
| CCc1cc(-c2cscn2)cc(N2CC[C@](N)(C(=O)NC3CC3)C2)c1Cn1cnc2c(N)ncnc21 [Example 98, (R)-3-amino-1-(2-((6-amino-9H-purin-9-yl)methyl)-3-ethyl-5-(thiazol-4-yl)phenyl)-N-cyclopropylpyrrolidine-3-carboxamide] | 0.05 to 0.1 µM | < 1.9 µM | < 2 µM |  |
| COC1CC2(C1)CC2NC(=O)[C@@]1(N)CCN(c2ccc(F)c(C(F)(F)F)c2Cn2cnc3c(N)ncnc32)C1 (stereo partly drawn) [Example 130] | < 0.05 µM | < 1.9 µM | < 2 µM |  |
| [2H]C([2H])([2H])OCc1c(Cl)ccc(N2CC[C@](N)(C(=O)NC3CC3)C2)c1Cn1cnc2c(N)ncnc21 [Example 81] | < 0.05 µM | < 1.9 µM | < 2 µM |  |
| Nc1ncnc2c1ncn2Cc1c(N2CC[C@](N)(C(=O)NC3CC3)C2)ccc(C(F)(F)F)c1Br [Example 41, (R)-3-amino-1-(2-((6-amino-9H-purin-9-yl)methyl)-3-bromo-4-(trifluoromethyl)phenyl)-N-cyclopropylpyrrolidine-3-carboxamide] | < 0.05 µM | < 1.9 µM | < 2 µM |  |
| Nc1ncnc2c1ncn2Cc1c(N2CC[C@](N)(C(=O)NC3CC3)C2)ccc(F)c1CN1CCC(F)(F)CC1 [Example 55] | 0.05 to 0.1 µM | < 1.9 µM | < 2 µM |  |
| CCCNC(=O)CCNC(=O)[C@@]1(N)CCN(c2ccc(F)c(C(F)(F)F)c2Cn2cnc3c(N)ncnc32)C1 [Example 139] | 0.05 to 0.1 µM | < 1.9 µM | < 2 µM |  |
| [2H]C([2H])([2H])OCc1c(F)ccc(N2CC[C@](N)(C(=O)NC3CC3)C2)c1Cn1cnc2c(N)ncnc21 [Example 80] | 0.05 to 0.1 µM | < 1.9 µM | < 2 µM |  |
| COC[C@@]1(N)CCN(c2ccc3ccccc3c2Cn2cnc3c(N)ncnc32)C1 [Example 109] | 0.05 to 0.1 µM | < 1.9 µM | < 2 µM |  |
| Nc1ncnc2c1ncn2Cc1c(N2CC[C@](N)(C(=O)NC3CC3)C2)ccc(F)c1CN1CCCC(F)(F)C1 [Example 69] | 0.05 to 0.1 µM | < 1.9 µM | < 2 µM |  |
| Nc1ncnc2c1ncn2Cc1c(N2CC[C@](N)(C(=O)NC3CC3)C2)ccc(F)c1CN1CCCC1 [Example 61] | 0.05 to 0.1 µM | < 1.9 µM | < 2 µM |  |
| C#Cc1c(F)ccc(N2CC[C@](N)(C(=O)NC3CC3)C2)c1Cn1cnc2c(N)ncnc21 [Example 5] | 0.05 to 0.1 µM | < 1.9 µM | < 2 µM |  |
| N#Cc1c(Cl)ccc(N2CC[C@](N)(C(=O)NC3CC3)C2)c1Cn1cnc2c(N)ncnc21 [Example 104] | < 0.05 µM | < 1.9 µM | < 2 µM |  |
| CCc1cc(Cl)cc(N2CC[C@](N)(C(=O)NC(C)C)C2)c1Cn1cnc2c(N)ncnc21 [Example 161] |  | < 1.9 µM | < 2 µM | < 0.05 µM |
| Nc1ncnc2c1ncn2Cc1c(N2CC[C@](N)(C(=O)NCCc3c[nH]cn3)C2)ccc(F)c1C(F)(F)F [Example 121] | < 0.05 µM | < 1.9 µM | < 2 µM |  |
| Nc1ncnc2c1ncn2Cc1c(N2CC[C@](N)(C(=O)NCc3cccnc3O)C2)ccc(F)c1C(F)(F)F [Example 120] | 0.05 to 0.1 µM | < 1.9 µM | < 2 µM |  |
| COCc1c(Cl)cc(Cl)c(N2CC[C@](N)(C(=O)NC3CC3)C2)c1Cn1cnc2c(N)ncnc21 [Example 162] |  | < 1.9 µM | 2 to 3 µM | 0.05 to 0.1 µM |
| CCc1cc(-c2cccnc2)cc(N2CC[C@](N)(C(=O)NC3CC3)C2)c1Cn1cnc2c(N)ncnc21 [Example 95] | < 0.05 µM | < 1.9 µM | < 2 µM |  |
| Nc1ncnc2c1ncn2Cc1c(N2CC[C@](N)(C(=O)NC3CC3)C2)cc(Cl)c(Cl)c1CN1CCOCC1 [Example 105] | < 0.05 µM | < 1.9 µM | < 2 µM |  |
| CCc1cc(Cl)cc(N2CC[C@](N)(CO)C2)c1Cn1cnc2c(N)ncnc21 [Example 108] | < 0.05 µM | < 1.9 µM | < 2 µM |  |
| Nc1ncnc2c1ncn2Cc1c(N2CC[C@](N)(C(=O)NC3CC3)C2)ccc(F)c1CN1CCC(F)CC1 [Example 56] | 0.05 to 0.1 µM | < 1.9 µM | < 2 µM |  |
| CCc1cccc(N2CC[C@](N)(C(=O)NC3CCCC3)C2)c1Cn1cnc2c(N)ncnc21 [Example 169] |  | < 1.9 µM | < 2 µM | 0.05 to 0.1 µM |
| Nc1ncnc2c1ncn2Cc1c(N2CC[C@](N)(C(=O)NC3CC3)C2)ccc(F)c1CN1C[C@H]2CC[C@@H](C1)O2 [Example 58] | 0.05 to 0.1 µM | < 1.9 µM | < 2 µM |  |
